biological target: human GluN1/GluN2B NMDA receptors (Homo sapiens, UniProt Q05586+Q13224); assay: Cell-based calcium flux (FLIPR) assay on cloned human NR1/NR2B ion channels expressed in mammalian cells; settings: standard assay; glutamate at ~EC80; FLIPR calcium flux
Method in brief: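 Calcium influx followed by FLIPR fluorescence after 5 min compound exposure and a further 5 min co-agonist challenge: 10 μM glycine with glutamate at ~EC80 (standard) or EC40 (HTS).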

human GluN1/GluN2B NMDA receptors, sequence (Q13224 27-1484, other chains not shown): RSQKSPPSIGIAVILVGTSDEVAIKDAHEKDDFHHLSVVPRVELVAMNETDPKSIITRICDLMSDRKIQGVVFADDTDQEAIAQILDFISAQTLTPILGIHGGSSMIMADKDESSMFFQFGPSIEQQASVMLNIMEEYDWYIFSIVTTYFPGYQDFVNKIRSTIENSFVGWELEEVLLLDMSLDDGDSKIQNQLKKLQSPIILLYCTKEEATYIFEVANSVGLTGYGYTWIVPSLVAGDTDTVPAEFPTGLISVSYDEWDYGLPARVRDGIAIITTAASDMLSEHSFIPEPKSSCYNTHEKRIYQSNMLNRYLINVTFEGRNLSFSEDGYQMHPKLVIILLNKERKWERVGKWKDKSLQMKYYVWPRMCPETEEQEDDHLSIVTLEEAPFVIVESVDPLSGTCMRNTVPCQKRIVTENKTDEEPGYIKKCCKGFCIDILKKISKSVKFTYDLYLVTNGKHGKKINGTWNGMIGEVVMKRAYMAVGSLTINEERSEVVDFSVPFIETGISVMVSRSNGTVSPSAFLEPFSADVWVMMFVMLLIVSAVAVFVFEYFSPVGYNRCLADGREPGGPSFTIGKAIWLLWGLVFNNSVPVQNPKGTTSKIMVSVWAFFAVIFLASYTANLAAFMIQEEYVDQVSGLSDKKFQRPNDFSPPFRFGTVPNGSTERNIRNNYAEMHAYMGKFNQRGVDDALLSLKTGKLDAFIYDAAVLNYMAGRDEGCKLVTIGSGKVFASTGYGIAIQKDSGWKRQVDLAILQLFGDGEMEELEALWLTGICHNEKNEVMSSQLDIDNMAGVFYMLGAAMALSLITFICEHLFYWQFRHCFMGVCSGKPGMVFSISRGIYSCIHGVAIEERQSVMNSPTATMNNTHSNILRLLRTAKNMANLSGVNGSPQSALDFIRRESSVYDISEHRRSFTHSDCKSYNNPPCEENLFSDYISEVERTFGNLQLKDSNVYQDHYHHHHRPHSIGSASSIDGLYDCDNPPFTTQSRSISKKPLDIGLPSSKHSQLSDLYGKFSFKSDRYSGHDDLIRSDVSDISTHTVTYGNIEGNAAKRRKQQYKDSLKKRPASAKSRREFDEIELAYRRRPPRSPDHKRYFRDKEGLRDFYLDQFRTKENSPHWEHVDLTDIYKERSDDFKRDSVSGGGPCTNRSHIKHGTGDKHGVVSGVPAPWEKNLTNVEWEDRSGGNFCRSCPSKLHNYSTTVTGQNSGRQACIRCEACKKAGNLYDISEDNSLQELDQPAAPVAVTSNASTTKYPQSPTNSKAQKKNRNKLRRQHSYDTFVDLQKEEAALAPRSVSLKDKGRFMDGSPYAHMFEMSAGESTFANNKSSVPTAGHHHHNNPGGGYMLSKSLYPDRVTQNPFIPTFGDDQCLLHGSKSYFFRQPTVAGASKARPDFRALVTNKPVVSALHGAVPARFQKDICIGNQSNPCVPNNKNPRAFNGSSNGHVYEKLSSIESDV

Row | Compound | IC50 [µM]
1 | Fc1ccc(-n2cc(COc3nccc(-c4ccco4)n3)nn2)cc1C(F)F [Example 424, 2-[[1-[3-(Difluoromethyl)-4-fluoro-phenyl]triazol-4-yl]methoxy]-4-(2-furyl)pyrimidine] | 0.141
2 | CN(C)c1ccnc(OCc2cn(-c3ccc(F)c(C(F)(F)F)c3)nn2)n1 [Example 450, 2-[[1-[4-Fluoro-3-(trifluoromethyl)phenyl]triazol-4-yl]methoxy]-N,N-dimethyl-pyrimidin-4-amine] | 0.03
3 | Fc1ccc(-n2cc(COc3nccc(NC4COC4)n3)nn2)cc1OC(F)F [Example 671, 2-((1-(3-(Difluoromethoxy)-4-fluorophenyl)-1H-1,2,3-triazol-4-yl)methoxy)-N-(oxetan-3-yl)pyrimidin-4-amine] | 0.126
4 | COCc1ccnc(OCc2cn(-c3ccc(F)c(Cl)c3)nn2)n1 [Example 622, 2-[[1-(3-Chloro-4-fluoro-phenyl)triazol-4-yl]methoxy]-4-(methoxymethyl)pyrimidine] | 0.066
5 | CC(C)(O)c1cnc(OCc2cn(-c3ccc(Cl)c(C(F)F)c3)nn2)nc1 [Example 626, 2-[2-[[1-[4-Chloro-3-(difluoromethyl)phenyl]triazol-4-yl]methoxy]pyrimidin-5-yl]propan-2-ol] | 0.067
6 | CC(=O)c1cnc(OCc2cn(-c3ccc(F)c(C(C)(F)F)c3)nn2)nc1 [Example 585, 1-[2-[[1-[3-(1,1-Difluoroethyl)-4-fluoro-phenyl]triazol-4-yl]methoxy]pyrimidin-5-yl]ethanone] | 0.011
7 | Cc1c(F)ccc(-n2cc(COc3ncc(C(F)(F)F)cn3)nn2)c1F [Example 643, 2-[[1-(2,4-Difluoro-3-methyl-phenyl)triazol-4-yl]methoxy]-5-(trifluoromethyl)pyrimidine] | 0.2

same assay, conditions: standard assay; human GluN1/GluN2B, calcium flux (FLIPR), glutamate ~EC80

Row | Compound | IC50 [µM]
8 | Cc1ccnc(OCc2cn(-c3ccc(Cl)c(C(F)F)c3)nn2)n1 [Example 30, 2-[[1-[4-Chloro-3-(difluoromethyl)phenyl]triazol-4-yl]methoxy]-4-methyl-pyrimidine] | 0.004
9 | CC(F)(F)c1cc(-n2cc(COc3ncc(Br)cn3)nn2)ccc1F [Example 183, 5-Bromo-2-[[1-[3-(1,1-difluoroethyl)-4-fluoro-phenyl]triazol-4-yl]methoxy]pyrimidine] | 0.009
10 | CC(F)(F)c1cc(-n2cc(COc3nccc(-c4cn[nH]c4)n3)nn2)ccc1F [Example 186, 2-[[1-[3-(1,1-Difluoroethyl)-4-fluoro-phenyl]triazol-4-yl]methoxy]-4-(1H-pyrazol-4-yl)pyrimidine] | 1.36
11 | CC(C)c1cc(-n2cc(COc3ncc(C(C)(C)O)cn3)nn2)ccc1F [Example 179, 2-[2-[[1-(4-Fluoro-3-isopropyl-phenyl)triazol-4-yl]methoxy]pyrimidin-5-yl]propan-2-ol] | 0.029
12 | CC(F)(F)c1cc(-n2cc(COc3ncccn3)nn2)ccc1F [Example 78, 2-[[1-[3-(1,1-Difluoroethyl)-4-fluoro-phenyl]triazol-4-yl]methoxy]pyrimidine] | 0.06
13 | Fc1ccc(-n2cc(CNc3ncccn3)nn2)cc1C(F)F [Example 24, N-[[1-[3-(Difluoromethyl)-4-fluoro-phenyl]triazol-4-yl]methyl]pyrimidin-2-amine] | 0.824
14 | FC(F)c1cc(-n2cc(COc3ncccn3)nn2)ccc1N1CCC1 [Example 188, 2-((1-(4-(Azetidin-1-yl)-3-(difluoromethyl)phenyl)-1H-1,2,3-triazol-4-yl)methoxy)pyrimidine] | 4.58
15 | Fc1cccc(-n2cc(COc3ncccn3)nn2)c1 [Example 228, 2-[[1-(3-Fluorophenyl)triazol-4-yl]methoxy]pyrimidine] | 5.65
16 | CCc1cnc(OCc2cn(-c3ccccc3C)nn2)nc1 [Example 241, 5-Ethyl-2-[[1-(o-tolyl)triazol-4-yl]methoxy]pyrimidine] | 1.46
17 | Cc1ccc(-n2cc(COc3ncc(Cl)cn3)nn2)cc1 [Example 259, 5-Chloro-2-[[1-(p-tolyl)triazol-4-yl]methoxy]pyrimidine] | 0.711

From US10233173B2, “Substituted 1,2,3-triazoles as NR2B-selective NMDA modulators” (JANSSEN PHARMACEUTICA NV, priority 2016, dated 2019)
